Reference: the supplement of paper PMC10307832

Tests used:
Experiment in all cases: relative viability (nuclei count vs DMSO), 5 days (fraction); higher = more cells survive
[1] = test system: HARA
Method in brief: (§1)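 After 5 days of treatment, lung cancer cells in 1536-well plates were fixed and stained in a single step (final 0.05% Triton X-100, 1% formaldehyde, 1 ug/ml Hoechst) and their nuclei counted on 4× images. Treatment had been applied by pin tool the day after seeding as one drug alone or as a fixed anchor-drug dose with five library-drug doses (not always all listed) in √10 steps. Relative viability is the nuclei count of treated wells divided by that of vehicle wells, and values are medians of duplicate plates.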

[2] = test system: NCI-H596
Method in brief: as §1

[3] = test system: COR-L 105
Method in brief: as §1

[4] = test system: HCC-366
Method in brief: as §1

[5] = test system: HOP-62
Method in brief: as §1

[6] = test system: NCI-H1915
Method in brief: as §1

[7] = test system: NCI-H1650
Method in brief: as §1

[8] = test system: LU99A
Method in brief: as §1

[9] = test system: LOU-NH91
Method in brief: as §1

[10] = test system: LC-2-ad
Method in brief: as §1

[11] = test system: HCC-827
Method in brief: as §1

[12] = test system: HCC-15
Method in brief: as §1

[13] = test system: NCI-H1395
Method in brief: as §1

[14] = test system: CAL-12T
Method in brief: as §1

[15] = test system: NCI-H650
Method in brief: as §1

[16] = test system: ABC-1
Method in brief: as §1

[17] = test system: NCI-H1944
Method in brief: as §1

[18] = test system: LCLC-97TM1
Method in brief: as §1

[19] = test system: NCI-H2023
Method in brief: as §1

[20] = test system: ChaGo-K-1
Method in brief: as §1

[21] = test system: NCI-H2009
Method in brief: as §1

[22] = test system: HCC-44
Method in brief: as §1

[23] = test system: BEN
Method in brief: as §1

[24] = test system: NCI-H522
Method in brief: as §1

[25] = test system: NCI-H661
Method in brief: as §1

`Nc1cccc2c1CN(C1CCC(=O)NC1=O)C2=O` (stereo not drawn) [Lenalidomide] + N=C(N)NC(=N)NCCc1ccccc1 [Phenformin] (partner 250 µM) showed a relative viability ([1]; first compound 0.253 µM) of 0.414, a relative viability ([1]; first compound 2.53 µM) of 0.595 and a relative viability ([1]; first compound 8 µM) of 0.417. It also gave a relative viability ([2]; first compound 0.253 µM) of 0.752, a relative viability ([2]; first compound 2.53 µM) of 0.911 and a relative viability ([2]; first compound 8 µM) of 0.635. The relative viability ([3]; first compound 0.253 µM) was 0.464, the relative viability ([3]; first compound 0.8 µM) was 0.523 and the relative viability ([3]; first compound 2.53 µM) was 0.554. The relative viability ([3]; first compound 8 µM) was 0.513, the relative viability ([4]; first compound 0.253 µM) was 0.564 and the relative viability ([4]; first compound 0.8 µM) was 0.547. For the same molecule, the relative viability ([4]; first compound 2.53 µM) was 0.691, the relative viability ([4]; first compound 8 µM) was 0.548 and the relative viability ([5]; first compound 0.253 µM) was 0.611. It also gave a relative viability ([5]; first compound 0.8 µM) of 0.733, a relative viability ([5]; first compound 2.53 µM) of 0.736 and a relative viability ([5]; first compound 8 µM) of 0.705. For the same molecule, the relative viability ([6]; first compound 0.253 µM) was 0.358, the relative viability ([6]; first compound 0.8 µM) was 0.373 and the relative viability ([6]; first compound 2.53 µM) was 0.401. The relative viability ([6]; first compound 8 µM) was 0.406, the relative viability ([7]; first compound 0.8 µM) was 0.376 and the relative viability ([7]; first compound 2.53 µM) was 0.554. For the same molecule, the relative viability ([7]; first compound 8 µM) was 0.483, the relative viability ([8]; first compound 0.253 µM) was 0.76 and the relative viability ([8]; first compound 0.8 µM) was 0.875. It also gave a relative viability ([8]; first compound 2.53 µM) of 0.96, a relative viability ([8]; first compound 8 µM) of 0.564 and a relative viability ([9]; first compound 0.253 µM) of 0.681. The relative viability ([9]; first compound 0.8 µM) was 0.584, the relative viability ([9]; first compound 2.53 µM) was 0.75 and the relative viability ([9]; first compound 8 µM) was 0.491. The relative viability ([10]; first compound 0.253 µM) was 0.567, the relative viability ([10]; first compound 2.53 µM) was 0.64 and the relative viability ([10]; first compound 8 µM) was 0.585. It also gave a relative viability ([11]; first compound 0.253 µM) of 0.408, a relative viability ([11]; first compound 0.8 µM) of 0.425 and a relative viability ([11]; first compound 2.53 µM) of 0.432. The relative viability ([11]; first compound 8 µM) was 0.437, the relative viability ([12]; first compound 0.253 µM) was 0.474 and the relative viability ([12]; first compound 0.8 µM) was 0.489. It also gave a relative viability ([12]; first compound 2.53 µM) of 0.53, a relative viability ([12]; first compound 8 µM) of 0.482 and a relative viability ([13]; first compound 0.253 µM) of 0.436. For the same molecule, the relative viability ([13]; first compound 0.8 µM) was 0.403, the relative viability ([13]; first compound 2.53 µM) was 0.508 and the relative viability ([13]; first compound 8 µM) was 0.419. For the same molecule, the relative viability ([14]; first compound 0.253 µM) was 0.548, the relative viability ([14]; first compound 0.8 µM) was 0.633 and the relative viability ([14]; first compound 2.53 µM) was 0.639. It also gave a relative viability ([14]; first compound 8 µM) of 0.647, a relative viability ([15]; first compound 0.253 µM) of 0.528 and a relative viability ([15]; first compound 2.53 µM) of 0.523. It also gave a relative viability ([15]; first compound 8 µM) of 0.42, a relative viability ([16]; first compound 0.253 µM) of 0.209 and a relative viability ([16]; first compound 0.8 µM) of 0.216. It also gave a relative viability ([16]; first compound 2.53 µM) of 0.27, a relative viability ([16]; first compound 8 µM) of 0.258 and a relative viability ([17]; first compound 0.253 µM) of 0.213. For the same molecule, the relative viability ([17]; first compound 0.8 µM) was 0.191, the relative viability ([17]; first compound 2.53 µM) was 0.223 and the relative viability ([17]; first compound 8 µM) was 0.174. It also gave a relative viability ([18]; first compound 0.253 µM) of 0.378, a relative viability ([18]; first compound 0.8 µM) of 0.409 and a relative viability ([18]; first compound 2.53 µM) of 0.485. For the same molecule, the relative viability ([18]; first compound 8 µM) was 0.365, the relative viability ([19]; first compound 0.253 µM) was 0.405 and the relative viability ([19]; first compound 0.8 µM) was 0.522. For the same molecule, the relative viability ([19]; first compound 2.53 µM) was 0.431, the relative viability ([19]; first compound 8 µM) was 0.407 and the relative viability ([20]; first compound 0.253 µM) was 0.497. It also gave a relative viability ([20]; first compound 0.8 µM) of 0.459, a relative viability ([20]; first compound 2.53 µM) of 0.636 and a relative viability ([20]; first compound 8 µM) of 0.478. For the same molecule, the relative viability ([21]; first compound 0.253 µM) was 0.454, the relative viability ([21]; first compound 0.8 µM) was 0.517 and the relative viability ([21]; first compound 2.53 µM) was 0.518. It also gave a relative viability ([21]; first compound 8 µM) of 0.528, a relative viability ([22]; first compound 0.253 µM) of 0.272 and a relative viability ([22]; first compound 2.53 µM) of 0.184. For the same molecule, the relative viability ([22]; first compound 8 µM) was 0.216, the relative viability ([23]; first compound 0.253 µM) was 0.287 and the relative viability ([23]; first compound 0.8 µM) was 0.268. For the same molecule, the relative viability ([23]; first compound 2.53 µM) was 0.285, the relative viability ([23]; first compound 8 µM) was 0.222 and the relative viability ([24]; first compound 0.253 µM) was 0.645. The relative viability ([24]; first compound 2.53 µM) was 0.643, the relative viability ([24]; first compound 8 µM) was 0.573 and the relative viability ([25]; first compound 0.253 µM) was 0.276. The relative viability ([25]; first compound 0.8 µM) was 0.314, the relative viability ([25]; first compound 2.53 µM) was 0.296 and the relative viability ([25]; first compound 8 µM) was 0.249.
